Values quoted from earlier work in patent US6645508B1, “Stable L-ascorbic acid composition” (priority 1999, dated 2003).

Test system: human skin fibroblasts
Details: at concentrations equivalent to L-Ascorbic acid

Structure (SMILES): CCCCCCCCCCCCCCCC(=O)OC[C@H](O)[C@H]1OC(=O)C(O)=C1O [ascorbyl palmitate]
- effect on human skin fibroblasts: killed human skin fibroblasts
